For the experiment, the system named is mouse organs. Put plainly: In vivo activity screening in mice: organ mean total flux (p/s) of luciferase activity after injection of F2 LNP pools (Table 6, FIG. 7A-7C). Conditions: luciferase mRNA. The method in brief: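 C57BL/6J mice given one tail-vein injection of pooled Formulation F2 LNPs carrying firefly luciferase mRNA (0.25-3 mg/kg) in PBS. At 4-6 h, s.c. D-luciferin given; organs imaged ex vivo by IVIS within 10-15 min, after saline cardiac perfusion. Mean total flux (p/s) per organ ROI.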

Marks after values point to notes of the source that are not given here.

On to `CCCCC/C=C\CCOC(=O)CCCCCCC(=O)OCC(COC(=O)CCCCCCC(=O)OCC/C=C\CCCCC)(COC(=O)CCCCCCC(=O)OCC/C=C\CCCCC)COC(=O)CCC(CCCC)OC(=O)NCCN1CCCC1` (centres unmarked) [Compound 25, O8-[2,2-bis[[8-[(Z)-non-3-enoxy]-8-oxo-octanoyl]oxymethyl]-3-[4-(2-pyrrolidin-1-ylethylcarbamoyloxy)octanoyloxy]propyl]O1-[(Z)-non-3-enyl]octanedioate], for which, where the note is “Mouse 6, dose 0.5 mg/kg”, the “Organ Mean Total Flux Femur” value is reported as 4.4 p/s (×10^6), the “Organ Mean Total Flux Heart” value is listed as 1.4 p/s (×10^6), the “Organ Mean Total Flux Kidney” value is listed as 5.9 p/s (×10^6) and the “Organ Mean Total Flux Liver” value is 911.0 p/s (×10^6). Also, where the note is “Mouse 6, dose 0.5 mg/kg”, the “Organ Mean Total Flux Lung” value is reported as 12.5 p/s (×10^6), the “Organ Mean Total Flux Muscle” value is reported as 5.1 p/s (×10^6), the “Organ Mean Total Flux Pancreas” value is listed as 14.3 p/s (×10^6) and the “Organ Mean Total Flux Spleen” value is listed as 80.3 p/s (×10^6).
Turning to `CCCCC/C=C\CCOC(=O)CCCCC(=O)OCC(COC(=O)CCCCC(=O)OCC/C=C\CCCCC)(COC(=O)CCC(CCCCCCCC)OC(=O)NCCN1CCCC1)COC(=O)CC12CC3CC(CC(C3)C1)C2` (centres unmarked) [Compound 66, O6-[2-[[2-(1-adamantyl)acetyl]oxymethyl]-2-[[6-[(Z)-non-3-enoxy]-6-oxohexanoyl]oxymethyl]-3-[4-(2-pyrrolidin-1-ylethylcarbamoyloxy)dodecanoyloxy]propyl]O1-[(Z)-non-3-enyl]hexanedioate], for the setting “Mouse 9, dose 0.5 mg/kg”, the “Organ Mean Total Flux Femur” value was 5.5 p/s (×10^6), the “Organ Mean Total Flux Heart” value is reported as 1.3 p/s (×10^6), the “Organ Mean Total Flux Kidney” value is 1.8 p/s (×10^6) and the “Organ Mean Total Flux Liver” value is reported as 68.9 p/s (×10^6). For the same molecule, where the note is “Mouse 9, dose 0.5 mg/kg”, the “Organ Mean Total Flux Lung” value was 14.1 p/s (×10^6), the “Organ Mean Total Flux Muscle” value is listed as 11.3 p/s (×10^6), the “Organ Mean Total Flux Pancreas” value is recorded as 4.0 p/s (×10^6) and the “Organ Mean Total Flux Spleen” value is reported as 7.8 p/s (×10^6).
As to `CCCCC/C=C\CCCOC(=O)CCCCCCC(=O)OCC(COC(=O)CCCCCCC(=O)OCCC/C=C\CCCCC)(COC(=O)CCCCCCC(=O)OCCC/C=C\CCCCC)COC(=O)CCC(CCCCCC)OC(=O)NCCN1CCCC1` (centres unmarked) [Compound 46, 8,8′-di((Z)-dec-4-en-1-yl) O′1,O1-(2-(((8-(((Z)-dec-4-en-1-yl)oxy)-8-oxooctanoyl)oxy)methyl)-2-(((4-(((2-(pyrrolidin-1-yl)ethyl)carbamoyl)oxy)decanoyl)oxy)methyl)propane-1,3-diyl) di(octanedioate)], where the note is “Mouse 11, dose 0.5 mg/kg”, the “Organ Mean Total Flux Femur” value is 1.8 p/s (×10^6), the “Organ Mean Total Flux Heart” value is 4.1 p/s (×10^6), the “Organ Mean Total Flux Kidney” value is listed as 2.1 p/s (×10^6) and the “Organ Mean Total Flux Liver” value is listed as 3107 p/s (×10^6). For the same molecule, under “Mouse 11, dose 0.5 mg/kg”, the “Organ Mean Total Flux Lung” value was 17.8 p/s (×10^6), the “Organ Mean Total Flux Muscle” value was 4.2 p/s (×10^6), the “Organ Mean Total Flux Pancreas” value was 0.9 p/s (×10^6) and the “Organ Mean Total Flux Spleen” value is 1.8 p/s (×10^6).
For `CCCCCCCC(C)OC(=O)CCCCCC(=O)OCC(COC(=O)CCCCCC(=O)OC(C)CCCCCCC)(COC(=O)CCCCCC(=O)OC(C)CCCCCCC)COC(=O)CCC(CCCCCC)OC(=O)NCCN1CCCC1` (centres unmarked) [Compound 38, O1-[2,2-bis[[7-(1-methyloctoxy)-7-oxo-heptanoyl]oxymethyl]-3-[4-(2-pyrrolidin-1-ylethylcarbamoyloxy)decanoyloxy]propyl]O7-(1-methyloctyl) heptanedioate], for the setting “Mouse 6, dose 0.5 mg/kg”, the “Organ Mean Total Flux Femur” value is 9.8 p/s (×10^6), the “Organ Mean Total Flux Heart” value was 11.0 p/s (×10^6), the “Organ Mean Total Flux Kidney” value was 8.1 p/s (×10^6) and the “Organ Mean Total Flux Liver” value was 6770 p/s (×10^6). In addition, under “Mouse 6, dose 0.5 mg/kg”, the “Organ Mean Total Flux Lung” value was 33.3 p/s (×10^6), the “Organ Mean Total Flux Muscle” value was 23.5 p/s (×10^6), the “Organ Mean Total Flux Pancreas” value is on record as 2.6 p/s (×10^6) and the “Organ Mean Total Flux Spleen” value is 27.2 p/s (×10^6).
With `CCCCCCC(CCC(=O)OCC(COC(=O)CCCC(=O)OCCC(CCCCC)CCCCC)(COC(=O)CCCC(=O)OCCC(CCCCC)CCCCC)COC(=O)CCCC(=O)OCCC(CCCCC)CCCCC)OC(=O)NCCN1CCCC1` (centres unmarked) [Compound 54, O5-[2,2-bis[[5-oxo-5-(3-pentyloctoxy)pentanoyl]oxymethyl]-3-[4-(2-pyrrolidin-1-ylethylcarbamoyloxy)decanoyloxy]propyl]O1-(3-pentyloctyl) pentanedioate], for the setting “Mouse 3, dose 1.0 mg/kg”, the “Organ Mean Total Flux Femur” value is 9.0 p/s (×10^6), the “Organ Mean Total Flux Heart” value is given as 19.3 p/s (×10^6), the “Organ Mean Total Flux Kidney” value is reported as 60.3 p/s (×10^6) and the “Organ Mean Total Flux Liver” value is recorded as 24850 p/s (×10^6). For the same molecule, under “Mouse 3, dose 1.0 mg/kg”, the “Organ Mean Total Flux Lung” value is 81.5 p/s (×10^6), the “Organ Mean Total Flux Muscle” value is listed as 19.2 p/s (×10^6), the “Organ Mean Total Flux Pancreas” value was 3.6 p/s (×10^6) and the “Organ Mean Total Flux Spleen” value is listed as 9.6 p/s (×10^6).
Regarding `CCCCCCC(CCC(=O)OCC(COC(=O)CCCCC(=O)OCCC(CCCC)CCCCC)(COC(=O)CCCCC(=O)OCCC(CCCCC)CCCCC)COC(=O)CCCCC(=O)OCCC(CCCCC)CCCCC)OC(=O)NCCN1CCCC1` (centres unmarked) [Compound 53], under “Mouse 3, dose 1.0 mg/kg”, the “Organ Mean Total Flux Femur” value was 2.5 p/s (×10^6), the “Organ Mean Total Flux Heart” value was 2.1 p/s (×10^6), the “Organ Mean Total Flux Kidney” value is recorded as 2.2 p/s (×10^6) and the “Organ Mean Total Flux Liver” value is 1286 p/s (×10^6). Moreover, where the note is “Mouse 3, dose 1.0 mg/kg”, the “Organ Mean Total Flux Lung” value is 12.1 p/s (×10^6), the “Organ Mean Total Flux Muscle” value was 5.5 p/s (×10^6), the “Organ Mean Total Flux Pancreas” value was 2.3 p/s (×10^6) and the “Organ Mean Total Flux Spleen” value is recorded as 9.3 p/s (×10^6).
For the molecule `CCCCC/C=C\CCOC(=O)CCCCC(=O)OCC(COC(=O)CCCCC(=O)OCC/C=C\CCCCC)(COC(=O)CCC(CCCCCC)OC(=O)NCCN1CCCC1)COC(=O)CC1CCC1` (centres unmarked) [Compound 73, O6-[2-[(2-cyclobutylacetyl)oxymethyl]-2-[[6-[(Z)-non-3-enoxy]-6-oxo-hexanoyl]oxymethyl]-3-[4-(2-pyrrolidin-1-ylethylcarbamoyloxy)decanoyloxy]propyl]O1-[(Z)-non-3-enyl]hexanedioate], where the note is “Mouse 12, dose 0.5 mg/kg”, the “Organ Mean Total Flux Femur” value was 7.3 p/s (×10^6), the “Organ Mean Total Flux Heart” value was 0.5 p/s (×10^6), the “Organ Mean Total Flux Kidney” value was 1.7 p/s (×10^6) and the “Organ Mean Total Flux Liver” value was 127.7 p/s (×10^6). For the same molecule, for the setting “Mouse 12, dose 0.5 mg/kg”, the “Organ Mean Total Flux Lung” value is on record as 10.6 p/s (×10^6), the “Organ Mean Total Flux Muscle” value is given as 6.8 p/s (×10^6), the “Organ Mean Total Flux Pancreas” value was 15.7 p/s (×10^6) and the “Organ Mean Total Flux Spleen” value was 49.2 p/s (×10^6).
In the case of `CCCCC/C=C\CCOC(=O)CCCCC(=O)OCC(COC(=O)CCCCC(=O)OCC/C=C\CCCCC)(COC(=O)CCC(CCCCCC)OC(=O)NCCN1CCCC1)COC(=O)C12CCCC1C2` (centres unmarked) [Compound 101, O6-[2-(bicyclo[3.1.0]hexane-1-carbonyloxymethyl)-2-[[6-[(Z)-non-3-enoxy]-6-oxo-hexanoyl]oxymethyl]-3-[4-(2-pyrrolidin-1-ylethylcarbamoyloxy)decanoyloxy]propyl]O1-[(Z)-non-3-enyl]hexanedioate], under “Mouse 12, dose 0.5 mg/kg”, the “Organ Mean Total Flux Femur” value is on record as 9.7 p/s (×10^6), the “Organ Mean Total Flux Heart” value is 0.8 p/s (×10^6), the “Organ Mean Total Flux Kidney” value is reported as 0.9 p/s (×10^6) and the “Organ Mean Total Flux Liver” value was 306.7 p/s (×10^6). Moreover, for the setting “Mouse 12, dose 0.5 mg/kg”, the “Organ Mean Total Flux Lung” value is 26.5 p/s (×10^6), the “Organ Mean Total Flux Muscle” value is given as 5.2 p/s (×10^6), the “Organ Mean Total Flux Pancreas” value is 14.3 p/s (×10^6) and the “Organ Mean Total Flux Spleen” value is 53.2 p/s (×10^6).
Regarding `CCCC/C=C\CCOC(=O)CCCCCC(=O)OCC(COC(=O)CCCCCC(=O)OCC/C=C\CCCC)(COC(=O)CCCCCC(=O)OCC/C=C\CCCC)COC(=O)CCC(CCCCCC)OC(=O)NCCN1CCCC1` (centres unmarked) [Compound 44, O7-[2,2-bis[[7-[(Z)-oct-3-enoxy]-7-oxo-heptanoyl]oxymethyl]-3-[4-(2-pyrrolidin-1-ylethylcarbamoyloxy)decanoyloxy]propyl]O1-[(Z)-oct-3-enyl]heptanedioate], where the note is “Mouse 11, dose 0.5 mg/kg”, the “Organ Mean Total Flux Femur” value is given as 5.6 p/s (×10^6), the “Organ Mean Total Flux Heart” value is recorded as 0.7 p/s (×10^6), the “Organ Mean Total Flux Kidney” value was 1.3 p/s (×10^6) and the “Organ Mean Total Flux Liver” value is 415.7 p/s (×10^6). In addition, where the note is “Mouse 11, dose 0.5 mg/kg”, the “Organ Mean Total Flux Lung” value is given as 6.5 p/s (×10^6), the “Organ Mean Total Flux Muscle” value is reported as 22.6 p/s (×10^6), the “Organ Mean Total Flux Pancreas” value is given as 3.1 p/s (×10^6) and the “Organ Mean Total Flux Spleen” value is 36.0 p/s (×10^6).
Turning to `CCCCC/C=C\CCOC(=O)CCCCCC(=O)OCC(COC(=O)CCCCCCOC(=O)C(CCCC)CCCCCC)(COC(=O)CCCCCCOC(=O)C(CCCC)CCCCCC)COC(=O)CCC(CCCCCC)OC(=O)NCCN1CCCC1` (centres unmarked) [Compound 17, O7-[2,2-bis[7-(2-butyloctanoyloxy)heptanoyloxymethyl]-3-[4-(2-pyrrolidin-1-ylethylcarbamoyloxy)decanoyloxy]propyl]O1-[(Z)-non-3-enyl]heptanedioate], for the setting “Mouse 2, dose 1.0 mg/kg”, the “Organ Mean Total Flux Femur” value is listed as 8.0 p/s (×10^6), the “Organ Mean Total Flux Heart” value is recorded as 13.0 p/s (×10^6), the “Organ Mean Total Flux Kidney” value is 7.6 p/s (×10^6) and the “Organ Mean Total Flux Liver” value is given as 11856 p/s (×10^6). Besides, for the setting “Mouse 2, dose 1.0 mg/kg”, the “Organ Mean Total Flux Lung” value is recorded as 59.3 p/s (×10^6), the “Organ Mean Total Flux Muscle” value is on record as 30.7 p/s (×10^6), the “Organ Mean Total Flux Pancreas” value is on record as 3.0 p/s (×10^6) and the “Organ Mean Total Flux Spleen” value was 5.5 p/s (×10^6).

(Values after patent US20260234115A1, “LIPID COMPOUNDS, COMPOSITIONS, AND USES THEREOF” (Liberate Bio, Inc., priority 2023, published 2026).)
